Where two headings read alike, the source gives them in different places. Blank lines part the entries; values can stand above or below the compound they belong to.
Assays:
TLR1/TLR2 [1] = target: T1, TLR1/TLR2 (Mus musculus, UniProt Q9EPQ1+Q9QUN7); conditions: cited from earlier work
TLR1/TLR2 [2] = target: T2, TLR1/TLR2 (Homo sapiens, UniProt O60603+Q15399); conditions: table of b113, in parentheses; cited from earlier work
[3] = background; cited from earlier work
B16-OVA melanoma [4] = conditions: background; diprovocim/OVA i.m.; cited from earlier work
[5] = system: OVA-specific IgG, IgG1, or IgG2b; test: Antibody response assay: serum OVA-specific IgG, IgG1, IgG2b by ELISA; type: in vivo, C57BL/6J mice; conditions: 14 days after a single immunization, with OVA
Procedure: (§1) Mice were injected i.m. on day 0 and day 28 (FIG. 1) with 100 μg OVA alone, or 100 μg OVA mixed with vehicle (DMSO:Tween 80:saline=1:1:8), or mixed with 200 μg diprovocim-1 (TNF-α 1) or diprovocim-X (TNF-α 35) per mouse. EndoFit ovalbumin (OVA) with >98% purity minimum (SDS-PAGE) and endotoxin levels <1 EU/mg was purchased from Invivogen.
On day 14 (FIG. 1), serum titers of OVA-specific IgG, IgG1, or IgG2b (SouthernBiotech) were measured by ELISA. Nunc MaxiSorp flat-bottom 96-well microplates (Thermo Fisher Scientific) were coated with 5 μg/mL soluble OVA (Invivogen) and incubated at 4° C. overnight (ca. 18 h). Plates were washed four times with washing buffer (0.05% [vol/vol] Tween-20 in PBS), then blocked with 1% (vol/vol) BSA in PBS for 1 h at room temperature. Serum samples diluted in 1% (vol/vol) BSA were added to the prepared plates and incubated for 2 h. The plates were washed eight times with washing buffer and then incubated with HRP-conjugated goat anti-mouse IgG, IgG1, or IgG2b for 1 h at room temperature. Plates were washed eight times with washing buffer, then developed with SureBlue TMB Microwell Peroxidase Substrate and TMB Stop Solution (KPL). Absorbance was measured at 450 nm on a Synergy Neo2 Plate Reader (BioTek).

[6] = system: SIINFEKL-loaded C57BL/6J splenocytes; test: In vivo CTL assay after i.m. immunization with OVA plus diprovocim; design: species or system C57BL/6J mice; conditions: 200 μg diprovocim + 100 μg OVA, 9 days after initial immunization and 9 days after boost
Procedure: as §1
On day 9 and day 37 (FIG. 1), naive C57BL/6J mice were killed, and splenocytes were collected. […] The unpulsed and peptide-pulsed cells were labeled, respectively, with […] (“low”) or […] (“high”) CellTrace Violet (Invitrogen) in serum-free medium for 20 min. Equal numbers (2×10^6) of CellTrace Violet^high (OVA pulsed) and CellTrace Violet^low (unpulsed) cells were mixed together and injected intravenously into the immunized mice.
After 48 h, blood from treated mice was collected and subjected to flow cytometry analysis. The numbers of remaining live CellTrace Violet^high and CellTrace Violet^low cells were determined and used to calculate the percentage of OVA peptide-pulsed target cells killed. Specific killing was defined as the ratio=CellTrace Violet^low cells/CellTrace Violet^high cells. The percentage of target cell lysis=[1−unimmunized ratio/immunized ratio]×100.

B16-OVA melanoma [7] = test: Tumor growth assay, B16-OVA melanoma in immunized mice; type: in vivo, C57BL/6J mice; conditions: inoculation 10 days after the second challenge; anti-mPD-L1 i.p.
Procedure: as §1
B16-OVA cells (B16F10 melanoma cells stably expressing chicken ovalbumin) were grown in DMEM containing 10% vol/vol FBS. On day 38 (FIG. 1), a total of 2×10^5 B16-OVA cells in 100 μL PBS were injected s.c. into the right flank of 17 week-old male C57BL/6J mice to establish tumors. On days 41, 44, and 47, the mice were injected i.p. with 200 μg checkpoint inhibitor (anti-mPD-L1, BioXcell) in 100 μL saline. Tumors were measured with a digital caliper (Fisher) and the tumor sizes were calculated using the following formula: volume=0.5×length×width^2. Mice were sacrificed when the tumor length or width reached 2 cm.

[8] = In vivo adjuvant activity, i.m. co-administration with ovalbumin; conditions: for adjuvant activity in mice (CD4- and CD-8-dependent responses): with OVA, i.m.
Procedure: C57BL/6J mice were purchased from The Jackson Laboratory. All study procedures using mice were approved by the Institutional Animal Care and Use Committee (IACUC) of the University of Texas Southwestern Medical Center and were conducted in accordance with institutionally approved protocols and guidelines for animal care and use. All the mice were maintained at the University of Texas Southwestern Medical Center in accordance with institutionally approved protocols.
EndoFit ovalbumin (OVA) with >98% purity minimum (SDS-PAGE) and endotoxin levels <1 EU/mg was purchased from Invivogen.

TLR1/TLR2 [9] = target: T2, TLR1/TLR2; test: TNF-α release from PMA-differentiated human THP-1 cells (ELISA); conditions: for Emax: THP-1, 4 h, read-out: Efficacy (magnitude) of response versus diprovocim-1 (100%), THP-1;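 as to all read-outs here: cells exposed to graded compound concentrations for 4 h, TNF-α quantified in supernatant, LPS as positive and DMSO as negative control, values are duplicate means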
Procedure: THP-1 (American Type Culture Collection) cells, a human monocytic leukemia cell line, were differentiated by treatment with 100 nM PMA (Sigma) in Roswell Park Memorial Institute (RPMI) cell culture medium [RPMI containing 10% vol/vol FBS (Gemini Bio Products), 1% penicillin and streptomycin (Life Technologies)] for 24 h. After that, the cells were washed with PBS and cultured in fresh RPMI cell culture medium for 24 h before use in studies. PMA-differentiated THP-1 cells were seeded onto 96-well plates at 0.5×10^5 cells per well and treated with systematically varied concentrations of the candidate compounds (dissolved in DMSO, and the final assay DMSO concentration (0.1%) was kept constant in all experiments) for 4 h. Ultra-pure LPS (dissolved in H2O, Enzo Life Sciences) was assessed alongside the compounds as a positive control and DMSO treated control was used as a negative control. Human TNF-α in the supernatants was measured by ELISA (eBioscience). This assay was used for establishing dose-response curves and measured EC50's. EC50's were calculated by Graphpad Prism. All data is the mean of duplicates and SD is within +10% of mean.

TLR1/TLR2 [10] = target: T1, TLR1/TLR2; test: TNF-α release from thioglycolate-elicited mouse peritoneal macrophages (ELISA); conditions: for Emax: 4 h, read-out: Efficacy (magnitude) of response versus diprovocim-1 (100%), mouse macrophages
[11] = read-out: EC50 (nM) (THP-1): EC50 TNF-α release from human THP-1 cells, Table 3
[12] = read-out: EC50 (nM) (THP-1): EC50 TNF-α release from human THP-1 cells, Table 5
[13] = read-out: EC50 (nM) (mouse): EC50 TNF-α release from mouse macrophages, Table 3
[14] = read-out: EC50 (nM) (mouse): EC50 TNF-α release from mouse macrophages, Table 5
[15] = read-out: EC50 (nM) (THP-1): EC50 TNF-α release from human THP-1 cells, Table 1
[16] = read-out: EC50 (nM) (mouse): EC50 TNF-α release from mouse macrophages, Table 1

T2 sequence (Q15399 25-786): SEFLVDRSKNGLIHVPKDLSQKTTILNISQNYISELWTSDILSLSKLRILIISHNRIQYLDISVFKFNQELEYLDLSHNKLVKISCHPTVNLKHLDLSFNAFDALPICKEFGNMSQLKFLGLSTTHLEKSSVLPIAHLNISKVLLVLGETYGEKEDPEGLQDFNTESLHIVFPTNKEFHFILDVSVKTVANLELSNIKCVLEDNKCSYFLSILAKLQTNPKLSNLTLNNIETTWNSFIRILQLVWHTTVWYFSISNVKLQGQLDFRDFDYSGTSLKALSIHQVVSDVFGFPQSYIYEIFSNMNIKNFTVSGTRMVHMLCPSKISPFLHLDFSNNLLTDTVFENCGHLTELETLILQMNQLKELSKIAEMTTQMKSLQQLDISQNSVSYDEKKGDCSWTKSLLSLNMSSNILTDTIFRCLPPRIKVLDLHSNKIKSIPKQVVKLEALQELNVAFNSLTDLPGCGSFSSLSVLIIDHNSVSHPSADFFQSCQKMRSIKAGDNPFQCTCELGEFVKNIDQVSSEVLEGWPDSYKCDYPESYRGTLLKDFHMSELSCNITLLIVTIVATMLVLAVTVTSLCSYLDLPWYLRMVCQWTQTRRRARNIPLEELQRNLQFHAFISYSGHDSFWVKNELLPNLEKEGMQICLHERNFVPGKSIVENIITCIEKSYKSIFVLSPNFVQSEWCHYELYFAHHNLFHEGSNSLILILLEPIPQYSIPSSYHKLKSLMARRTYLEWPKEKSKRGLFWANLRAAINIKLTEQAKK
T2 sequence (O60603 21-784): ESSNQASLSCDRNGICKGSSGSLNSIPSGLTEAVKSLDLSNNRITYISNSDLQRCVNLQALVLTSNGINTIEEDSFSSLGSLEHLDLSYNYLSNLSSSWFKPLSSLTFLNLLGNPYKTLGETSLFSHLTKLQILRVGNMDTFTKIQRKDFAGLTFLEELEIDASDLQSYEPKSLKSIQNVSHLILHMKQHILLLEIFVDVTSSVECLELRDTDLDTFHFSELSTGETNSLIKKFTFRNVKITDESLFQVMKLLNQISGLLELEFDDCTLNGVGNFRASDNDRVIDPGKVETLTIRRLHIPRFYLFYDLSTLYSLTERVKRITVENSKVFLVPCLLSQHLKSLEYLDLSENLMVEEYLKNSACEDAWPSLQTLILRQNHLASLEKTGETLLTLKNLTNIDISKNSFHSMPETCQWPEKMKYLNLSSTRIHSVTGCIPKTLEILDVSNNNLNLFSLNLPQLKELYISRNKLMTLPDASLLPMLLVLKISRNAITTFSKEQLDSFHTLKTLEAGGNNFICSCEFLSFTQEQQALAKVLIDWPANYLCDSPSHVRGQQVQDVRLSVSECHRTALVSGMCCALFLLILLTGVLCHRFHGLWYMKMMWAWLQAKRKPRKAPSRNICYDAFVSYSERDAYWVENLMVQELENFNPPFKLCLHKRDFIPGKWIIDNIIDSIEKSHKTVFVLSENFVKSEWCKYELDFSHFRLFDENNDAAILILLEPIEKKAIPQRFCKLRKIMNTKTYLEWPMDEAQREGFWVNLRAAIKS
T1 sequence (Q9EPQ1 26-795): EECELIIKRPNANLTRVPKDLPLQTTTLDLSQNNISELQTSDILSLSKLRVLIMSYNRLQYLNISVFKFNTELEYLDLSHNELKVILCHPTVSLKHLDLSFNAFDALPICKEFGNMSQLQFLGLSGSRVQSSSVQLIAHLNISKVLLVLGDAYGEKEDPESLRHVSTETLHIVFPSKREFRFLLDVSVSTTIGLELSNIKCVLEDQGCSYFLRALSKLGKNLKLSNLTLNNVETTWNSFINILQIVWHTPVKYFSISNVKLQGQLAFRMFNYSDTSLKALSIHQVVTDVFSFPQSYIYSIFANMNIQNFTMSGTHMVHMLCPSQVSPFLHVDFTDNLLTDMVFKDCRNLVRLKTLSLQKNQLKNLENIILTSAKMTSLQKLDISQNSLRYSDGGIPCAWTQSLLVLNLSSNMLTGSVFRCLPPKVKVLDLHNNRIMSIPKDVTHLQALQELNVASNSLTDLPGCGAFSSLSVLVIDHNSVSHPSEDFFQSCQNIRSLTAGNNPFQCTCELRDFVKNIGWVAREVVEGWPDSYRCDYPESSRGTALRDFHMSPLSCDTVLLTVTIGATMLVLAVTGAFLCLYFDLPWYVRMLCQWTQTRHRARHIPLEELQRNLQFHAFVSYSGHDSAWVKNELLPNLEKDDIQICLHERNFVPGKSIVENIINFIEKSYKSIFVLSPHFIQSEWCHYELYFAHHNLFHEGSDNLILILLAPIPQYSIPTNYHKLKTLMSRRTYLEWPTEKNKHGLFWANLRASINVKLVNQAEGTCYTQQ
T1 sequence (Q9QUN7 25-784): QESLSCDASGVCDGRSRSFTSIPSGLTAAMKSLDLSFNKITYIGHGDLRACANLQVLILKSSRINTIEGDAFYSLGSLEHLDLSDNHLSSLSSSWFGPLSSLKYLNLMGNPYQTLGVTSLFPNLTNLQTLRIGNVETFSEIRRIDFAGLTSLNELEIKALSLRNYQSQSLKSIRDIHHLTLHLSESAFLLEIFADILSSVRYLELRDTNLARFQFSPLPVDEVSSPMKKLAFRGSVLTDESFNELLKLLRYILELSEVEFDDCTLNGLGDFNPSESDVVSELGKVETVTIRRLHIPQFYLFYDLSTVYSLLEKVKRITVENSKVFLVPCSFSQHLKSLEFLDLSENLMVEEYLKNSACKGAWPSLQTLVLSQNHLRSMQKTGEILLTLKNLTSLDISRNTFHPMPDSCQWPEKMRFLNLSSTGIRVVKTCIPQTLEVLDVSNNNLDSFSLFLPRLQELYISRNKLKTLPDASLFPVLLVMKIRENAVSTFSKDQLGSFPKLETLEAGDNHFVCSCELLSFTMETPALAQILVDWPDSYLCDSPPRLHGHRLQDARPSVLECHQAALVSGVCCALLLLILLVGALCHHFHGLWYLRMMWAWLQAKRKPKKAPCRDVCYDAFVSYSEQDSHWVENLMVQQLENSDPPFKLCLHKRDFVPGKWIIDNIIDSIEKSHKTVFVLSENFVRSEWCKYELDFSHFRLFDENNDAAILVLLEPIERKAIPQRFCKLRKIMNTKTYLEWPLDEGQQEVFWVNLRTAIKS

Structure (SMILES): O=C(O)[C@@H]1CN(C(=O)c2ccc(C(=O)N3C[C@@H](C(=O)N[C@H]4C[C@@H]4c4ccccc4)[C@H](C(=O)N[C@H]4C[C@@H]4c4ccccc4)C3)cc2)C[C@H]1C(=O)N[C@H]1C[C@@H]1c1ccccc1 [Compound 2]
EC50 (TLR1/TLR2 [1]; table of b113, prior observation ref 15, read-out: EC50 (nM) (mouse): EC50 TNF-α release from mouse macrophages): > 5000 nM | Efficacy (magnitude) of response versus diprovocim-1 (100%), THP-1 (TLR1/TLR2 [2]): 110%

Structure (SMILES): O=C(N[C@H]1C[C@@H]1c1ccccc1)[C@@H]1CN(C(=O)c2ccc(C(=O)N3C[C@@H](C(=O)N[C@H]4C[C@@H]4c4ccccc4)[C@H](C(=O)N[C@H]4C[C@@H]4c4ccccc4)C3)cc2)C[C@H]1C(=O)N[C@H]1C[C@@H]1c1ccccc1 [Compound 1, reference compound]
Efficacy (magnitude) of response versus diprovocim-1 (100%), mouse macrophages (TLR1/TLR2 [1]; table of b113, in parentheses): 100% | adjuvant activity in mice when co-administered i.m. with ovalbumin [3]: effective adjuvant | effect of combination with anti-PD-L1 on B16-OVA tumors in mice (B16-OVA melanoma [4]): eradicated tumors | OVA-specific circulating antibodies of different subtypes by ELISA (FIGS. 3A-3C) [5]: strong responses | in vivo cytotoxicity against OVA peptide-loaded C57BL/6J splenocytes (CTL, FIG. 2A) [6]: induced strong in vivo cytotoxicity | Resistance to B16-OVA melanoma (FIG. 2B) (B16-OVA melanoma [7]): notably enhanced | overt toxicity when used as an adjuvant ([8]; compared with LPS administration): did not display the overt toxicity | adjuvant activity in mice (CD4- and CD-8-dependent responses) [8]: comparable adjuvant activity | Efficacy (magnitude) of response versus diprovocim-1 (100%), THP-1 (TLR1/TLR2 [2]): 100%

Structure (SMILES): CC(C)(C)OC(=O)NCC(=O)OCCCCCCCCCCCCNC(=O)[C@@H]1CN(C(=O)c2ccc(C(=O)N3C[C@@H](C(=O)N[C@H]4C[C@@H]4c4ccccc4)[C@H](C(=O)N[C@H]4C[C@@H]4c4ccccc4)C3)cc2)C[C@H]1C(=O)N[C@H]1C[C@@H]1c1ccccc1 [Compound 35, 12-((3S,4S)-1-(4-((3S,4S)-3,4-Bis(((1S,2R)-2-phenylcyclopropyl)carbamoyl)-pyrrolidine-1-carbonyl)benzoyl)-4-(((1S,2R)-2-phenyl-cyclopropyl)carbamoyl)-pyrrolidine-3-carboxamido)-dodecyl-2-((tert-butoxycarbonyl)-amino)acetate]
efficacy relative to that of diprovocim-1 in human THP-1 cells (TLR1/TLR2 [9]): 100% | Efficacy (magnitude) of response versus diprovocim-1 (100%), THP-1 (TLR1/TLR2 [9]; Table 3, in parentheses): 100% | Efficacy (magnitude) of response versus diprovocim-1 (100%), THP-1 (TLR1/TLR2 [9]; Table 5, in parentheses): 100% | Efficacy (magnitude) of response versus diprovocim-1 (100%), THP-1 (TLR1/TLR2 [9]; Table 6, in parentheses): 100% | EC50 (TLR1/TLR2 [9]; [11]): 0.14 nM | EC50 (TLR1/TLR2 [9]; [12]): 0.14 nM | EC50 (TLR1/TLR2 [9]; read-out: EC50 (nM) (THP-1): EC50 TNF-α release from human THP-1 cells, Table 6): 0.14 nM | EC50 (TLR1/TLR2 [9]; read-out: EC50 in human THP-1 cells): 0.14 nM | efficacy relative to that of diprovocim-1 in mouse macrophages (TLR1/TLR2 [10]): 550% | fold more active than diprovocim-1 in mouse macrophages (TLR1/TLR2 [10]): 2 fold | Efficacy (magnitude) of response versus diprovocim-1 (100%), mouse macrophages (TLR1/TLR2 [10]; Table 3, in parentheses): 550% | Efficacy (magnitude) of response versus diprovocim-1 (100%), mouse macrophages (TLR1/TLR2 [10]; Table 5, in parentheses): 550% | Efficacy (magnitude) of response versus diprovocim-1 (100%), mouse macrophages (TLR1/TLR2 [10]; Table 6, in parentheses): 550% | EC50 (TLR1/TLR2 [10]; [13]): 0.75 nM | EC50 (TLR1/TLR2 [10]; [14]): 0.75 nM | EC50 (TLR1/TLR2 [10]; read-out: EC50 (nM) (mouse): EC50 TNF-α release from mouse macrophages, Table 6): 0.75 nM | EC50 (TLR1/TLR2 [10]; read-out: EC50 in mouse macrophages): 0.75 nM | OVA-specific circulating antibodies of different subtypes by ELISA (FIGS. 3A-3C) [5]: strong responses | in vivo cytotoxicity against OVA peptide-loaded C57BL/6J splenocytes (CTL, FIG. 2A) [6]: induced strong in vivo cytotoxicity | Resistance to B16-OVA melanoma (FIG. 2B) (B16-OVA melanoma [7]): notably enhanced | adjuvant activity in mice (CD4- and CD-8-dependent responses) [8]: matching or surpassing the activity of diprovocim-1

Emax (TLR1/TLR2 [9]): 100% | EC50 (TLR1/TLR2 [9]; [15]): 0.3 nM | Emax (TLR1/TLR2 [10]): 250% | EC50 (TLR1/TLR2 [10]; [16]): 6 nM
Structure (SMILES): Nc1ccc(CCCCCCCCNC(=O)[C@@H]2CN(C(=O)c3ccc(C(=O)N4C[C@@H](C(=O)N[C@H]5C[C@@H]5c5ccccc5)[C@H](C(=O)N[C@H]5C[C@@H]5c5ccccc5)C4)cc3)C[C@H]2C(=O)N[C@H]2C[C@@H]2c2ccccc2)cc1 [Compound 27, (3S,4S)—N-(8-(4-Aminophenyl)octyl)-1-(4-((3S,4S)-3,4-bis(((1S,2R)-2-phenylcyclopropyl)carbamoyl)-pyrrolidine-1-carbonyl)benzoyl)-N^4-((1S,2R)-2-phenyl-cyclopropyl)-pyrrolidine-3,4-dicarboxamide]

Emax (TLR1/TLR2 [9]): 30% | EC50 (TLR1/TLR2 [9]; [11]): 0.29 nM | Emax (TLR1/TLR2 [10]): 110% | EC50 (TLR1/TLR2 [10]; [13]): 4.9 nM
Structure (SMILES): C#CCOCC(=O)OCCCCCCCCCCCCNC(=O)[C@@H]1CN(C(=O)c2ccc(C(=O)N3C[C@@H](C(=O)N[C@H]4C[C@@H]4c4ccccc4)[C@H](C(=O)N[C@H]4C[C@@H]4c4ccccc4)C3)cc2)C[C@H]1C(=O)N[C@H]1C[C@@H]1c1ccccc1 [Compound 54, 12-((3S,4S)-1-(4-((3S,4S)-3,4-Bis(((1S,2R)-2-phenylcyclopropyl)carbamoyl)pyrrolidine-1-carbonyl)benzoyl)-4-(((1S,2R)-2-phenylcyclopropyl)-carbamoyl)pyrrolidine-3-carboxamido)dodecyl 2-(prop-2-yn-1-yloxy)acetate]

Emax (TLR1/TLR2 [9]): 110% | EC50 (TLR1/TLR2 [9]; [15]): 200 nM | Emax (TLR1/TLR2 [10]): 30% | EC50 (TLR1/TLR2 [10]; [16]): 1200 nM
Structure (SMILES): O=C(O)CNC(=O)CCCCCCCCCCCNC(=O)[C@@H]1CN(C(=O)c2ccc(C(=O)N3C[C@@H](C(=O)N[C@H]4C[C@@H]4c4ccccc4)[C@H](C(=O)N[C@H]4C[C@@H]4c4ccccc4)C3)cc2)C[C@H]1C(=O)N[C@H]1C[C@@H]1c1ccccc1 [Compound 15, (12-((3S,4S)-1-(4-((3S,4S)-3,4-Bis(((1S,2R)-2-phenylcyclopropyl)carbamoyl)pyrrolidine-1-carbonyl)benzoyl)-4-(((1S,2R)-2-phenylcyclopropyl)carbamoyl)pyrrolidine-3-carboxamido)-dodecanoyl)glycine]

Structure (SMILES): C[C@@H](NC(=O)OC(C)(C)C)C(=O)OCCCCCCCCCCCCNC(=O)[C@@H]1CN(C(=O)c2ccc(C(=O)N3C[C@@H](C(=O)N[C@H]4C[C@@H]4c4ccccc4)[C@H](C(=O)N[C@H]4C[C@@H]4c4ccccc4)C3)cc2)C[C@H]1C(=O)N[C@H]1C[C@@H]1c1ccccc1 [Compound 58, 12-((3S,4S)-1-(4-((3S,4S)-3,4-Bis(((1S,2R)-2-phenyl-cyclopropyl)carbamoyl)pyrrolidine-1-carbonyl)-benzoyl)-4-(((1S,2R)-2-phenylcyclopropyl)carbamoyl)-pyrrolidine-3-carboxamido)-dodecyl (tert-butoxycarbonyl)-D-alaninate]
Emax (TLR1/TLR2 [9]): 110% | EC50 (TLR1/TLR2 [9]; [12]): 1.7 nM | Emax (TLR1/TLR2 [10]): 200% | EC50 (TLR1/TLR2 [10]; [14]): 5 nM

— US20250367166A1, “NEXT GENERATION DIPROVOCIMS THAT ACTIVATE THE INNATE AND ADAPTIVE IMMUNE RESPONSE” (The Scripps Research Institute, priority 2022, published 2025)
